These results are taken from US12514865B2, “Biomaterial-based antigen free vaccine and the use thereof” (President and Fellows of Harvard College, priority 2019, dated 2026).

For one data set, the system named is 4T1 tumors. The data set can be described thus: Tumor penetration study of Dox-iRGD. It is filed as in vivo, Balb/c mice. To be noted: released from peritumorally injected gels with GM-CSF, confocal imaging.
A short description of data set [1]: Release of Dox-iRGD or Dox from pore-forming alginate gels. It counts as physicochemical. To be noted: in vitro, DMEM 37 °C.
The next data set has as its system 4T1 cells. The data set can be described thus: In vitro immunogenic cell death assay. To be noted: 24 h. It is filed as cell-based.
The nature of data set [2]: In vitro encapsulation and release of biomolecules from the cryogel vaccine. It counts as physicochemical.
Experimental: To determine the incorporation efficiency and release kinetics of Cpg-odn, GM-CSF and antigen from cryogel vaccines, gels were incubated in lml of sterile PBS at 37° C. with shaking. Media was replaced periodically. Micro-BCA (Pierce Biotechnology) was used to quantify total protein content. GM-CSF and Cpg-odn released in the supernatant were detected by ELISA (Invitrogen) and OliGreen assay (Invitrogen), respectively. The amount of antigen was determined by subtracting total protein content from the amount of GM-CSF quantified by ELISA.

Experimental for 4T1 cells: 4T1 cells were incubated with different concentrations of Dox at 37° C. for 24 h. Cells without drug treatment were used as controls. Cells were washed with PBS for three times, collected, and stained with FITC-conjugated anti-CD47, Alex Fluor 647-conjugated anti-calreticulin, and fixable viability dye efluor780 for 20 min prior to FACS analyses.
Experimental for 4T1 tumors: 4T1 cells (0.6 million) in HBSS buffer were subcutaneously injected into the right flank of Balb/c mice. After 5 days, pore-forming alginate gels loaded with GM-CSF (3 μg)+Dox-iRGD (50 μg in Dox-equivalent) or GM-CSF+Dox-iRDG or GM-CSF+Dox were injected next to the tumors. After 48 h, gels and tumors were harvested and frozen with O.C.T. compound, and sectioned with a thickness of 8 μm. To determine the tumor penetration of drugs, tissue sections were stained with DAPI for 10 min and imaged under a confocal microscope.

Take `COc1cccc2c1C(=O)c1c(O)c3c(c(O)c1C2=O)C[C@@](O)(C(=O)CO)C[C@@H]3O[C@H]1C[C@H](N)[C@H](O)[C@H](C)O1` [Dox, doxorubicin]: in the data set with 4T1 tumors, the “tumor penetration / accumulation in tumor tissues” value was “negligible accumulation”. Also, in data set [1], the “released from pore-forming alginate gel within 6 h” value is recorded as about 30% and the “released from pore-forming alginate gel within 24 h” value is “more than 60%”. Moreover, in the data set on 4T1 cells, the “expression of CD47” value is recorded as “increased expression of the anti-phagocytic marker CD47”. In addition, the cell-surface calreticulin result with 4T1 cells (0-100 nM) is reported as “upregulated cell-surface calreticulin”.
On to “GM-CSF: cytokine granulocyte-macrophage colony-stimulating factor (PeproTech)”, for which, in data set [2] (from cryogel), the “released over the first 5 days in vitro” value was found to be 85%. Besides, the encapsulation efficiency in data set [2] (in MA-PEG/MA-alginate vaccine cryogel) was found to be 87%. Besides, in data set [2] (in vitro, from cryogel), the “burst release of the loaded amount” value is given as “about 8%”.
